Assays:
[1] = Effect on Wnt signaling pathway in human SW480 cells harbouring TCF/LEF luciferase reporter gene and SP5-Luc reporter gene incubated for 36 to 48 hrs by luminescence assay; assay type: cell-based
[2] = Induction of chondrogenesis in human MSC assessed as maximum activity at 30 nM incubated for 6 days by rhodamine B and Nile red staining based imaging analysis relative to control; assay type: functional; settings: BMMSC, 144 h, time 6 day
[3] = target: Dual specificity tyrosine-phosphorylation-regulated kinase 1A (Homo sapiens, UniProt Q13627); test: Inhibition of recombinant DYRK1A (unknown origin) using Ser/Thr 18 peptide as substrate incubated for 1 hr in presence of ATP by FRET assay
[4] = Induction of chondrogenesis in human MSC assessed as incubated for 6 days by rhodamine B and Nile red staining based imaging analysis; assay type: functional; settings: bmmsc
[5] = Induction of chondrogenesis in human MSC assessed as maximum activity at 10 nM incubated for 6 days by rhodamine B and Nile red staining based imaging analysis relative to control; assay type: functional; settings: BMMSC, 144 h, time 6 day
[6] = Inhibition of IL1-beta induced MMP3 expression levels in human chondrocytes assessed as MMP3 levels incubated for 2hrs followed by IL1-beta stimulation and measured after overnight incubation by LANCE assay; assay type: functional, cell-based; settings: Chondrocyte

Row | SMILES | EC50 [1] [nM] | EC50 [3] [nM] | EC50 [4] [nM] | EC50 [6] [nM] | Emax at 0.03 µM [2] [%] | Emax at 0.01 µM [5] [%]
1 | c1csc(-c2cncc3[nH]c(-c4n[nH]c5ncc(-c6cncc(CNCC7CCCC7)c6)cc45)nc23)c1 | 98 | 16 | – | – | 74.6 | –
2 | Nc1cncc(-c2ccc3[nH]nc(-c4cc5c(-c6ccncc6)ccnc5[nH]4)c3n2)c1 | > 10000 | 8 | – | – | 26.9 | –
3 | O=C(Nc1cncc(-c2cc3c(-c4cc5cccnc5[nH]4)n[nH]c3cn2)c1)C1CC1 | > 10000 | 6 | – | – | 17.7 | –
4 | CC(C)Oc1ccc(NC(=O)c2n[nH]c3ccc(-c4cncc(CN5CC6CC(C5)O6)c4)cc23)cn1 | 61 | – | 30 | 0.2 | – | 75.7
5 | CC(C)Nc1cncc(-c2ccc3[nH]nc(-c4nc5c(-c6cccnc6)nccc5[nH]4)c3n2)c1 | 981 | 14 | 10 | – | – | 54.4
6 | O=C(Nc1cncc(-c2ccc3[nH]nc(-c4nc5c(-c6ccccc6F)ccnc5[nH]4)c3n2)c1)C(F)(F)F | > 10000 | 86 | 10 | – | – | 74
7 | CC(C)C(=O)Nc1cncc(-c2cc3c(-c4cc5c(-c6cccnc6)cccc5[nH]4)n[nH]c3cn2)c1 | 275 | 77 | 10 | – | – | 201
8 | CC(C)Nc1cncc(-c2cc3c(-c4cc5c(-c6cccnc6)ccnc5[nH]4)n[nH]c3cn2)c1 | > 10000 | 19 | 10 | – | – | 77
9 | CS(=O)(=O)NCc1cc(F)cc(-c2nccc3[nH]c(-c4n[nH]c5ccc(-c6cncc(CN7CCCCC7)c6)nc45)cc23)c1 | 1100 | 68 | 10 | – | – | 50.1
10 | Cc1ccc(-c2nccc3[nH]c(-c4n[nH]c5ccc(-c6cncc(N)c6)nc45)nc23)s1 | 45.5 | 2 | 10 | 3000 | – | 72.6
11 | COc1cncc(C(=O)Nc2c[nH]nc2C(=O)Nc2ccc(OCCN3CCCC3)nc2)c1 | 22.3 | 12 | 10 | – | – | 106
12 | CN(C)Cc1cncc(-c2ccc3[nH]nc(-c4nc5c(-c6cccc(F)c6)nccc5[nH]4)c3n2)c1 | 1050 | 48 | 30 | – | – | 75.6
13 | c1ccc2[nH]c(-c3n[nH]c4ncc(-c5cncc(CN6CCCC6)c5)cc34)cc2c1 | 1410 | 56 | 10 | – | – | 97.6
14 | Cc1ccc(-c2nccc3[nH]c(-c4n[nH]c5ccc(-c6cncc(N)c6)cc45)nc23)s1 | 1.9 | 58 | 2700 | – | – | 163
15 | CCNCc1cncc(-c2cc3c(-c4cc5c(-c6cccnc6)cncc5[nH]4)n[nH]c3cn2)c1 | 3730 | 2 | 10 | 3000 | – | 67.6
16 | O=C(Nc1cncc(-c2cc3c(-c4cc5cnccc5[nH]4)n[nH]c3cn2)c1)C1CCCCC1 | 1620 | 3 | 30 | – | – | 59.4
17 | c1ccc(CNCc2cncc(-c3ccc4[nH]nc(-c5cc6c(-c7cccs7)cncc6[nH]5)c4c3)c2)cc1 | 578 | 63 | 10 | – | – | 57.4
18 | Fc1ccccc1-c1nccc2[nH]c(-c3n[nH]c4cnc(-c5cncc(CN6CCCC6)c5)cc34)cc12 | 1980 | 41 | 10 | – | – | 69.4
19 | CN(C)Cc1cncc(-c2ccc3[nH]nc(-c4cc5c(-c6cccc(F)c6)cncc5[nH]4)c3c2)c1 | 1280 | 43 | 10 | – | – | 193
20 | O=C(Nc1cncc(-c2ccc3[nH]nc(-c4nc5c(-c6ccc(Cl)s6)nccc5[nH]4)c3n2)c1)C1CCC1 | 823 | 92 | 30 | – | – | 60.2
21 | CCCCC(=O)Nc1cncc(-c2ccc3[nH]nc(-c4nc5c(-c6cc(F)cc(NCCN(C)C)c6)cncc5[nH]4)c3n2)c1 | > 10000 | 55 | 10 | – | – | 64.7
22 | CN(C)Cc1cncc(-c2cc3c(-c4cc5c(-c6cccc(F)c6)nccc5[nH]4)n[nH]c3cn2)c1 | 1850 | 54 | 30 | – | – | 60
23 | Cc1cn(-c2nccc3[nH]c(-c4n[nH]c5ccc(-c6cncc(NC(=O)C(C)(C)C)c6)nc45)nc23)cn1 | > 10000 | 39 | 30 | – | – | 69.7
24 | CS(=O)(=O)NCc1cc(F)cc(-c2nccc3[nH]c(-c4n[nH]c5ccc(-c6cncc(NC(=O)Cc7ccccc7)c6)nc45)cc23)c1 | > 10000 | 100 | 10 | – | – | 110
25 | CCNCc1cncc(-c2ccc3[nH]nc(-c4cc5ccccc5[nH]4)c3c2)c1 | 395 | 11 | 10 | – | – | 532
26 | Fc1ccc(-c2nccc3[nH]c(-c4n[nH]c5cnc(-c6cncc(CN7CCC(F)(F)C7)c6)cc45)cc23)cc1 | 291 | 10 | 10 | – | – | 61.2
27 | CN(C)Cc1cncc(-c2ccc3[nH]nc(-c4cc5c(-c6ccccc6F)cncc5[nH]4)c3n2)c1 | 1370 | 69 | 30 | – | – | 50.6

Further lines, with some results ahead:

Row | EC50 [1] [nM] | EC50 [3] [nM] | EC50 [4] [nM] | EC50 [6] [nM] | SMILES | Emax at 0.03 µM [2] [%] | Emax at 0.01 µM [5] [%]
28 | 1440 | 10 | – | – | O=C(CC1CCNCC1)Nc1cncc(-c2ccc3[nH]nc(-c4cc5c(-c6ccccn6)cccc5[nH]4)c3n2)c1 | 8.03 | –
29 | 710 | 34 | 10 | – | CN(C)c1cncc(-c2ccc3[nH]nc(-c4nc5c(-c6cccs6)cncc5[nH]4)c3n2)c1 | – | 65.6
30 | 572 | 44 | 10 | – | CC(C)CC(=O)Nc1cncc(-c2cc3c(-c4cc5c(-c6cccs6)nccc5[nH]4)n[nH]c3cn2)c1 | – | 81.4
31 | 1120 | 53 | 30 | – | c1cncc(-c2ccc3[nH]nc(-c4nc5c(-c6cccnc6)cccc5[nH]4)c3n2)c1 | – | 57.8
32 | 1270 | 15 | 30 | – | CC(C)Nc1cncc(-c2ccc3[nH]nc(-c4nc5c(-c6cccnc6)cncc5[nH]4)c3n2)c1 | – | 64.6
33 | > 10000 | 29 | 10 | – | CCCCC(=O)Nc1cncc(-c2cc3c(-c4cc5c(-c6cccnc6)ccnc5[nH]4)n[nH]c3cn2)c1 | – | 52.8
34 | > 10000 | 64 | 10 | – | O=C(CC1CCNCC1)Nc1cncc(-c2ccc3[nH]nc(-c4cc5c(-c6ccoc6)ccnc5[nH]4)c3n2)c1 | – | 102
35 | 3760 | 29 | 10 | – | CCNCc1cncc(-c2ccc3[nH]nc(-c4cc5cccnc5[nH]4)c3n2)c1 | – | 79.9
36 | 3680 | 31 | 10 | – | c1csc(-c2nccc3[nH]c(-c4n[nH]c5cnc(-c6cncc(CN7CCCCC7)c6)cc45)cc23)c1 | – | 59
37 | > 10000 | 3 | – | 3000 | CC(C)CC(=O)Nc1cncc(-c2cc3c(-c4nc5c(-c6cc(F)cc(OCCN7CCCC7)c6)cncc5[nH]4)n[nH]c3cn2)c1 | – | 20.3
38 | 41 | 17 | 10 | – | CC(C)Oc1ccc(NC(=O)c2n[nH]c3ccc(-c4cncc(CN5CCCCC5)c4)cc23)cn1 | – | 51.9
39 | > 10000 | 27 | 30 | – | CS(=O)(=O)NCc1cc(F)cc(-c2nccc3[nH]c(-c4n[nH]c5cnc(-c6cncc(CNCC7CCCC7)c6)cc45)cc23)c1 | – | 52.3
40 | > 10000 | 18 | 10 | – | CCCCC(=O)Nc1cncc(-c2ccc3[nH]nc(-c4nc5c(-c6cc(F)cc(NCCN(C)C)c6)ccnc5[nH]4)c3n2)c1 | – | 71.4
41 | 1070 | 40 | 30 | – | Nc1cncc(-c2ccc3[nH]nc(-c4nc5c(-c6ccccc6F)cccc5[nH]4)c3n2)c1 | – | 81.8
42 | > 10000 | 97 | 30 | – | c1cncc(-c2ccc3[nH]nc(-c4nc5cnccc5[nH]4)c3n2)c1 | – | 54.8
43 | > 10000 | 20 | 10 | – | c1cc(-c2cncc3[nH]c(-c4n[nH]c5ccc(-c6cncc(CN7CCCCC7)c6)nc45)cc23)ccn1 | – | 97.1
44 | 377 | 26 | 30 | – | COc1cccc(-c2nccc3[nH]c(-c4n[nH]c5ccc(-c6cccnc6)nc45)nc23)c1 | – | 50.6
45 | > 10000 | 35 | 10 | – | O=C(Nc1cncc(-c2ccc3[nH]nc(-c4cc5c(-c6cccnc6)cncc5[nH]4)c3c2)c1)c1ccccc1 | – | 68.5
46 | 66.3 | 20 | 10 | – | Cc1ccc(-c2cccc3[nH]c(-c4n[nH]c5ccc(-c6cncc(N)c6)nc45)nc23)s1 | – | 87.9
47 | 800 | 72 | 30 | – | O=C(Nc1cncc(-c2ccc3[nH]nc(-c4nc5c(-c6ccc(Cl)s6)cncc5[nH]4)c3n2)c1)C1CCC1 | – | 67.9
48 | 390 | 48 | 10 | – | O=C(Nc1cncc(-c2cnc3[nH]nc(-c4cc5c(-c6ccccc6F)cncc5[nH]4)c3c2)c1)C1CC1 | – | 52.1

— ChEMBL document CHEMBL4739717, “Methods of treating cartilage disorders through inhibition of clk and dyrk” (2020)
